Measured values taken from US8637237B2, “Methods, compositions, and systems for the identification of species-specific or developmental stage-specific insecticides” (The University of North Carolina at Greensboro, priority 2003, dated 2014).
Like-named read-outs stand apart in the source and are kept apart here. Values belong to the compound of their own block, whether it stands above or below them.

Columns and labels:
GGEc = target: T1, GGEc (Drosophila melanogaster, UniProt P34021); assay: GGEc chimera (GR amino terminus and DBD, EcR LBD) with RXR in CHO cells; assay type: cell-based
T1 construct: were replaced by EcR LBD amino acids (EcR amino acids 329 to 878); expressed in transfected cells; host or cells: CHO
T1 sequence (P34021 329-878): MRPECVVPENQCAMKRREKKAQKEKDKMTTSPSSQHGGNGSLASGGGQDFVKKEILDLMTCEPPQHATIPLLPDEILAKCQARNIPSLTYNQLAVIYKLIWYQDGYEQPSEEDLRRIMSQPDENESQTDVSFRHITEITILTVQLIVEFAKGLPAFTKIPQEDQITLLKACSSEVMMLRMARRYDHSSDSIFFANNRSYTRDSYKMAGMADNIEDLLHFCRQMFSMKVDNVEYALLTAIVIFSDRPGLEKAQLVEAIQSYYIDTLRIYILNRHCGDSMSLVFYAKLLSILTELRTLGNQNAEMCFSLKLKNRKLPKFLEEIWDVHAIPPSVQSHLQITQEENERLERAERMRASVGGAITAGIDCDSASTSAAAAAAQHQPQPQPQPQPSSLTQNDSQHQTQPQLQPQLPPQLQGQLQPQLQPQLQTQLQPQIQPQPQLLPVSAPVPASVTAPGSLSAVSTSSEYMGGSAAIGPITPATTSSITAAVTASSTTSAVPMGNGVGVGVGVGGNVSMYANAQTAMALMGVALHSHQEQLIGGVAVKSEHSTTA
Source text: For these experiments, the luciferase reporter construct was used. To obviate influences from other transcription factors, results were normalized using a reporter plasmid from which CAT expression is driven by a minimal promoter consisting of dimerized GREs linked upstream of a 13 base pair TATA box DNA element derived from the adenovirus E1B gene.
In this experiment, GGEc and RXR were transfected into CHO cells with either a CAT or a luciferase reporter plasmid containing 1.5 kilobase pairs of the glucocorticoid-inducible mouse mammary tumor virus (MTV) promoter.
In these experiments, CHO cells were transfected with a GGEc-expressing plasmid, a mouse RXRα expression plasmid, and an adenovirus E1b TATA-(GRE)2-CAT reporter plasmid. The GGEc plasmid was eliminated from DNA mixtures added to cells transfected in parallel. CAT activities were measured from lysates of cells from triplicate wells treated with ethanol vehicle, juvocimene (20 μM), muristerone A (0.2 μM), or both.
In these experiments, CHO cells were transfected with DNAs as described above but ubiquinone-2 (10 μM) was substituted for juvocimene.

insect = conditions: from Schneiderman and Gilbert, Science 143; cited from earlier work
FXR = target: T2, FXR (Rattus norvegicus, UniProt Q62735); assay: cell-based
T2 sequence (Q62735 1-469): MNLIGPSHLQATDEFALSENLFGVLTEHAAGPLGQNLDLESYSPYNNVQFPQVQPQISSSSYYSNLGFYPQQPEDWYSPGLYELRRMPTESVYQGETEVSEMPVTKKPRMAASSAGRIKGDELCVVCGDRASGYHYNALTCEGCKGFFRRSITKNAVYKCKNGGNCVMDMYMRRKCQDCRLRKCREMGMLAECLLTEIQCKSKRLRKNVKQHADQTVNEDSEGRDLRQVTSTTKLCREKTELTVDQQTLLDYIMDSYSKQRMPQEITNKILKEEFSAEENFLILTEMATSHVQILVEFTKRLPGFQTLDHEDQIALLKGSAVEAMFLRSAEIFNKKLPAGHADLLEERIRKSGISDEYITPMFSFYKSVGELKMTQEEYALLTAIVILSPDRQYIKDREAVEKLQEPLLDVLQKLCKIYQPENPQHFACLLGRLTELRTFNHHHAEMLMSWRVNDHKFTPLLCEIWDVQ
T2 sequence (P28700 1-467 partner): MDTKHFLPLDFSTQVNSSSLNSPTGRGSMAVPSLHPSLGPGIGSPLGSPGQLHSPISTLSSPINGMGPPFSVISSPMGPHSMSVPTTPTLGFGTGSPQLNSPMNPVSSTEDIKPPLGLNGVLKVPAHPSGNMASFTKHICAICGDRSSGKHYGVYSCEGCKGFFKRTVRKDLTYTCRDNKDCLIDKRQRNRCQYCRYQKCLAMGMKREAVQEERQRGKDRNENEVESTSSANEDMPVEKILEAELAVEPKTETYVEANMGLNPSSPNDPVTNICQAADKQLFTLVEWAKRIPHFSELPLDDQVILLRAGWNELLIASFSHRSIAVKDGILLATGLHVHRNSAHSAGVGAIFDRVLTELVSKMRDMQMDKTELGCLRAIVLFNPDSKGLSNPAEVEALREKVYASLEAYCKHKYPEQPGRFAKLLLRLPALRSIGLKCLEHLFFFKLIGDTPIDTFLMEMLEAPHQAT
Outline: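 CHO cells co-transfected with FXR, mouse RXRα and a (EcRE)5-ΔMTV-CAT reporter, with β-galactosidase for normalization. An RXR-dependent CRBPII-CAT reporter was run in parallel. Cells were exposed to candidate juvenoids for 24 h; CAT activity normalized to β-gal and expressed as fold induction over vehicle controls.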

[1] = tested on: Leptinotarsa decemlineata EcR; assay: Leptinotarsa decemlineata EcR/USP, response to agonists (FIG. 7, 8); assay type: cell-based; conditions: FIG. 8
Procedure: Unless noted otherwise, 100 ng of each EcR and USP plasmid was transfected into 2 ml of cell culture medium. As noted above, a reporter gene carrying five tandem copies of the hsp27 ecdysone response element (Riddihough and Pelham, 1986) is attached to a constitutive thymidine kinase promoter and a luciferase reporter gene (pEcREtk-LUC) and cotransfected into the cells along with vectors expressing EcR, USP, and a constitutively active β-galactosidase gene with lipofection, following manufacturer's protocols. The subsequent measure of luciferase activity reflects ecdysteroid-inducible transcription.
After a 4 hour transfection period, the hormone treatment was applied by diluting stock solutions of muristerone A (murA; Alexis Corporation, San Diego, Calif.), JHI (Scitech), JHIII (Sigma, St Louis, Mo.), and/or 20E (Sigma, St Louis, Mo.) in DMSO. The cells were harvested 24 hours after treatment and the contents of the cells extracted for performing the luciferase and β-galactosidase assays.
Leptinotarsa decemlineata (Ld) USP constructs were made by sub-cloning two different LdUSP inserts into the pVP16 vector (Clontech). This vector encodes a fusion protein of the herpes simplex virus […] viral protein (VP16) activation domain (AD) fused to LdUSP. The LdUSP portion of the fusion gene was isolated by PCR in two different lengths from a plasmid, pBSKS(+)-LdUSP. […]

PPAR = assay: PPAR-based transcriptional assay; assay type: cell-based; conditions: data not shown
GR = GR (Homo sapiens, UniProt P04150); assay: GR-based transcriptional assay; assay type: cell-based; conditions: data not shown
RAR = assay: RAR-based transcriptional assay; assay type: cell-based; conditions: data not shown
RXR = RXR (Mus musculus, UniProt P28700); assay: RXR-based transcriptional assay; assay type: cell-based; conditions: data not shown
GGF = target: T3, GGF (Rattus norvegicus, UniProt Q62735); assay: GGF chimera (GR amino terminus and DBD, FXR LBD) in CHO cells; assay type: cell-based; conditions: data not shown
T3 construct: the GR amino terminus and DBD (appending 23 amino acids downstream from the conserved gly-met) were fused to the FXR LBD; expressed in transfected cells; host or cells: CHO
Source text: A plasmid was constructed that expresses a hybrid protein (GGF) consisting of the human GR amino terminus and DBD linked to the carboxyl terminus of FXR.
In these experiments, CHO cells were transfected with receptor plasmids expressing GGF and mouse RXRα and a luciferase reporter plasmid containing the upstream 1.5 kbp of the MTV promoter.

tobacco hornworm larvae = conditions: cited from earlier work
[2] = via 20,22-dihydroxycholesterol intermediate; read-out: apparent Km of metabolism to pregnenolone; cited from earlier work

Sequence of GR (P04150 whole entry): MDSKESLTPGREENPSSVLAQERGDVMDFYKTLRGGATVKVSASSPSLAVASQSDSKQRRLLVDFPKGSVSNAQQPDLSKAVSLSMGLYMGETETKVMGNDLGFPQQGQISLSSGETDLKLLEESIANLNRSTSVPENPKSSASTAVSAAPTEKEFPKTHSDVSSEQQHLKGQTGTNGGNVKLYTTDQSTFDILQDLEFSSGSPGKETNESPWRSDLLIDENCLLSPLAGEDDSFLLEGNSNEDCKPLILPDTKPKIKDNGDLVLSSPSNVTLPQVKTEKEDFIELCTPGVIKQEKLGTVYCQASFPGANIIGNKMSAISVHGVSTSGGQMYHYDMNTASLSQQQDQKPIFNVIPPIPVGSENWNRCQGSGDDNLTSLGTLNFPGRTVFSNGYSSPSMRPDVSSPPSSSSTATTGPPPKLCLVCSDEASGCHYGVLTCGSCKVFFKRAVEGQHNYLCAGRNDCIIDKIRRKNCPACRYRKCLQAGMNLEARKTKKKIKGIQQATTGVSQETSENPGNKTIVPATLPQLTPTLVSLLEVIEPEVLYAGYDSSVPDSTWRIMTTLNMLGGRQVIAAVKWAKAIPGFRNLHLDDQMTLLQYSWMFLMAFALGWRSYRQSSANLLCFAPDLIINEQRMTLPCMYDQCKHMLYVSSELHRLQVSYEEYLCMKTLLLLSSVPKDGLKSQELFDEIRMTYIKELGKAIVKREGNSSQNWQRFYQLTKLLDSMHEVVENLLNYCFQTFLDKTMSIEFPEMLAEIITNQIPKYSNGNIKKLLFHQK

GGEc transcription with compound plus MUR relative to MUR alone (GGEc; 50 μM compound, 0.2 μM MUR): between two and four times more
EC50 (FXR): 15 µM
FXR-dependent CAT activity, induction (FXR; 50 μM): 9 fold
SMILES: C=CC(C)(O)CCC=C(C)CCC=C(C)C (centres unmarked) [nerolidol]
JH ACTIVITY (units/g) (insect): 8.9 units/g
FXR ACTIVITY (fold-induction) (FXR; final dose of 50 ∝M, 1 = induction less than 2-fold below cytotoxic doses): 9 fold-induction

SMILES: COc1cccc(C(=O)NN(C(=O)c2cc(C)cc(C)c2)C(C)(C)C)c1C [RH2485]
stimulation of Leptinotarsa EcR, agonists compared [1]: much greater stimulation by RH2485, than by murA or 20E

SMILES: COc1ccc2c(c1)OC(C)(C)C=C2 [precocene I]
activity in PPAR-based transcriptional assay (PPAR): inactive
activity in GR-based transcriptional assay (GR): inactive
activity in RAR-based transcriptional assay (RAR): inactive
reduction of FXR activity of mouse liver microsome extract by ethyl acetate-soluble products (FXR; 100 μM TLC-purified precocene I incubated with CD-1 mouse liver microsomes, NADPH, 37° C., one hour): 70%
FXR-dependent activity, induction (FXR; dose not stated): 15 fold
FXR activity of TLC-separated material from precocene I (FXR; eluted from silica, hexane-ethyl acetate (9:1)): did not affect FXR
EC50 (FXR; read-out: EC50 for FXR-dependent CAT activity): 150 µM
activity in RXR-based transcriptional assay (RXR): inactive

inhibition of CDCA-induced GGF-dependent activity (GGF): 54%
FXR-dependent activity, induction (FXR; 1 mM): ineffectiveness
inhibition at 100 µM (FXR; CHO, read-out: inhibition of FXR activity induced by farnesol): 44%
SMILES: O=c1ccc2cc(O)c(O)cc2o1 [esculetin]

FXR-dependent activity, induction (FXR; 3 mM): 12 fold
FXR ACTIVITY (fold-induction) (FXR; dose 3000 μM): 12 fold-induction
FXR-dependent activity, induction (FXR; theophylline (3 mM) mixed with 8-Br-cAMP (1 mM)): more than 100 fold
SMILES: Cn1c(=O)c2[nH]cnc2n(C)c1=O [theophylline]
concentration in tobacco hornworm larvae (tobacco hornworm larvae; three days after eating tomato leaves sprayed with 1% theophylline): 4000 µM
reduction of leaf consumption (tobacco hornworm larvae; tomato leaves sprayed with 1% theophylline): by half

SMILES: CC(C)CC[C@@H](O)[C@@H](C)[C@H]1CC[C@H]2[C@@H]3CC=C4C[C@@H](O)CC[C@]4(C)[C@H]3CC[C@]12C [22R-hydroxycholesterol, 22R-Hydroxycholesterol]
Km [2]: 7 µM
FXR-dependent transcription, induction (FXR; 7.5 μM): 10 fold

SMILES: COC1=C(OC)C(=O)C(C/C=C(\C)CCC=C(C)C)=C(C)C1=O [U2, ubiquinone-2]
GGEc-dependent activity increase over MUR (GGEc; 10 μM ubiquinone-2, muristerone A): 7 times
FXR-dependent activity, induction (FXR; dose not stated): 7 fold
